Where two headings read alike, the source gives them in different places.
Tests used:
[1] = test system: Methicillin Resistant Staphylococcus aureus (MRSA) Strain USA300; experiment: Growth inhibition of MRSA in buffered TSB medium; assay type: cell-based
Description: FIG. 17. Inhibition of Methicillin Resistant Staphylococcus aureus (MRSA) Strain USA300 by ML317 (DU011). USA300 was grown shaking in TSB medium buffered at different pH as indicated in the figure with the addition of different concentrations of the chemical probe ML317. Growth was measured by absorbance readings as indicated.

E. coli K1 strain UTI89 = experiment: microbe, parasite or virus in culture; conditions: for Selectivity index (CC50/IC50): versus bladder 5637 cells
Summary of the method: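 UTI89 cultures in LB with 0.5% DMSO were preincubated 2 hr at 37 °C with compounds (100 μM in screen), then with K1F phage a further 2 hr. Viability was read as Alamar Blue fluorescence. Phage-lysis inhibition is relative to plate bacterial controls; IC50 by 4-parameter fit locked at 0 and 100.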

[2] = Plasma protein binding, mouse; assay type: in vitro ADME
Plasma stability, mouse = assay type: in vitro ADME; conditions: 1:1 Plasma:PBS, 37° C.
in vitro = assay type: cell-based; conditions: human
[3] = test system: E. coli strains 536 (K15 serotype), CFT073 (K2 serotype), DS17 (K5 serotype), UTI89 (K1 serotype); experiment: Visualization of isolated capsule by Alcian blue staining; assay type: cell-based, Escherichia coli; conditions: strains 536, CFT073, DS17, UTI89; DU011 200 μM
Description: Visualization of capsule using Alcian blue staining. Overnight cultures of clinical E. coli strains were diluted 1:100 in the presence of 1% DMSO or 100 μM DU011. Cultures were grown for ˜6 hrs (OD600=1.2) at 37° C. Samples were centrifuged at 13,200 RPM for 5 min. The medium was removed and the cells were resuspended in 500 μL of Tris-Acetate (pH 5) and shaken for 1 hr at 37° C. Samples were re-centrifuged, and the supernatant was concentrated ˜100 fold in Amicon 3K microconcentrators.
A major consideration was whether the inhibitors of K1 encapsulation were also able to inhibit the production of other important E. coli Group 2 capsule types. […] Capsular material was isolated from strains 536 (K15 serotype), CFT073 (K2 serotype) and DS17 (K5 serotype), and UTI89 (K1 serotype) in the presence and absence of capsule inhibitors. Capsule was isolated from the same amount of bacteria after growth in vehicle or with inhibitor DU011 (200 μM). Isolated material was separated on a polyacrylamide gel and stained with the cationic dye alcian blue.

panel of 68 receptors = conditions: for Inhibition across off-target panel: duplicate, upper bound over all targets
PAMPA permeability = assay type: in vitro ADME; conditions: read-out: PAMPA Pe
[4] = Plasma protein binding, human; assay type: in vitro ADME

SMILES: CCOc1ccc(-c2cc(NC(=O)c3c(F)cccc3F)c(C(=O)O)s2)cc1 [ML317, 3-(2,6-difluorobenzamido)-5-(4-ethoxyphenyl)thiophene-2-carboxylic acid]
- Mode of action on MRSA (culture of bacteria from the experiments) [1]: bactericidal
- Concentration sufficient to produce inhibition of MRSA ([1]; pH 5 and 5.5, TSB medium): 25 to 50 µM
- Growth of MRSA ([1]; pH 7, 100 and 200 μM): inhibited growth
- inhibition at 100 µM (E. coli K1 strain UTI89; Escherichia coli, read-out: % Inhibition at 100 μM): 9.12%
- IC50 (E. coli K1 strain UTI89; Escherichia coli, read-out: K1 Capsule IC50, commercial sample, SID 103147605): 4.5 ± 2.4 µM
- IC50 (E. coli K1 strain UTI89; Escherichia coli, read-out: K1 Capsule IC50, synthesized sample, SID 126497311): 1.89 ± 1.56 µM
- IC50 (E. coli K1 strain UTI89; Escherichia coli, read-out: K1 phage IC50, first round of synthetic analogues, n = 3): 1.89 µM
- IC50 (E. coli K1 strain UTI89; Escherichia coli, read-out: K1 phage IC50, purchased analogue series, n = 3): 4.5 µM
- Selectivity (Cyt./K1) (E. coli K1 strain UTI89; first round of synthetic analogues): 27.3
- Selectivity (Cyt./K1) (E. coli K1 strain UTI89; purchased analogue series): 10.49
- Selectivity index (CC50/IC50) (E. coli K1 strain UTI89): > 10
- Selectivity index (CC50/IC50) (E. coli K1 strain UTI89; listed as CID 23602075): 10.49
- Plasma Protein Binding (% Bound) ([2]; 1 μM): 98.97 % Bound
- Plasma Protein Binding (% Bound) ([2]; 10 μM): 99.31 % Bound
- Plasma Stability, % remaining at 3 hr (Plasma stability, mouse): 78.4 % remaining
- CC50 (in vitro): 26 µM
- Capsular material, Alcian blue stained gel [3]: capsule was reduced in each strain
- Inhibition across off-target panel (panel of 68 receptors; 10 μM): < 50%
- Inhibition across off-target panel (panel of 68 receptors; 10 μM, listed as DU011, 10 µM): < 32%
- Papp (PAMPA permeability; Donor pH 5.0, Acceptor pH 7.4, RT): 14 ×10⁻⁶ cm/s
- Papp (PAMPA permeability; Donor pH 6.2, Acceptor pH 7.4, RT): 209 ×10⁻⁶ cm/s
- Papp (PAMPA permeability; pH 7.4, Donor pH 7.4, Acceptor pH 7.4, RT): 52 ×10⁻⁶ cm/s
- Plasma Protein Binding (% Bound) ([4]; 1 μM): 99.68 % Bound
- Plasma Protein Binding (% Bound) ([4]; 10 μM): 99.85 % Bound

SMILES: CCOc1ccc(-c2cc(NC(=O)c3c(F)cccc3F)c(C(=O)O)s2)cc1 [KUC107784N-02]
- % Inh. (panel of 68 receptors; 10 µM): 6%
- % Inh. (panel of 68 receptors; Calcium Channel L-Type, Benzothiazepine, rat, 10 μM): 2%
- % Inh. (panel of 68 receptors; Calcium Channel L-Type, Dihydropyridine, rat, 10 μM): 32%
- % Inh. (panel of 68 receptors; Dopamine D2S, hum, 10 μM): 4%
- % Inh. (panel of 68 receptors; Dopamine D42, hum, 10 μM): 7%
- % Inh. (panel of 68 receptors; GABAA, Flunitrazepam, Central, rat, 10 μM): 16%
- % Inh. (panel of 68 receptors; GABAA, Muscimol, Central, rat, 10 μM): 9%
- % Inh. (panel of 68 receptors; Glutamate, Kainate, rat, 10 μM): 11%
- % Inh. (panel of 68 receptors; Glutamate, NMDA, Agonism, rat, 10 μM): 9%
- % Inh. (panel of 68 receptors; Glutamate, NMDA, Glycine, rat, 10 μM): −1%
- % Inh. (panel of 68 receptors; Glutamate, NMDA, Phencyclidine, rat, 10 μM): 6%
- % Inh. (panel of 68 receptors; Imidazoline I2, Central, rat, 10 μM): −1%
- % Inh. (panel of 68 receptors; Nicotinic Acetylcholine, hum, 10 μM): 13%
- % Inh. (panel of 68 receptors; Phorbol Ester, mouse, 10 μM): −1%
- % Inh. (panel of 68 receptors; Potassium Channel [KATP], ham, 10 μM): 9%
- % Inh. (panel of 68 receptors; Purinergic P2X, rabbit, 10 μM): −2%
- % Inh. (panel of 68 receptors; Purinergic P2Y, rat, 10 μM): 8%
- % Inh. (panel of 68 receptors; Rolipram, rat, 10 μM): 9%
- % Inh. (panel of 68 receptors; Thyroid Hormone, rat, 10 μM): −3%
- % Inh. (panel of 68 receptors; Transporter, GABA, rat, 10 μM): 10%

— patent US9688653B2, “Ethoxyphenyl thienyl compounds and methods for the treatment of bacterial infections” (Duke University, priority 2013, dated 2017)
